Measurements taken from PMC10011573, “Development of novel broad-spectrum antimicrobial lipopeptides derived from plantaricin NC8 β” (Scientific Reports, 2023).
Where two headings read alike, the source gives them in different places. Residues, ends and D or L forms follow the SMILES beside them. No end group written: not given here. *: point of attachment. Pentadecanoyl = CCCCCCCCCCCCCCC(=O)*; Decanoyl = CCCCCCCCCC(=O)*; Octanoyl = CCCCCCCC(=O)*; Butyryl = CCCC(=O)*

Columns and labels:
[1] = test system: E. coli (K-12 MG1655)
Description: (§1) S. aureus (ATCC 29213, MSSA, ATCC, Manassas, VA), E. coli (K-12 MG1655) and clinical isolates of S. aureus, E. coli, E. faecium, K. pneumoniae, A. baumannii, P. aeruginosa and E. cloacae obtained from the Department of Laboratory Medicine at Örebro University Hospital were streaked on Luria–Bertani (LB) agar plates and incubated at 37 °C overnight. Single colonies were inoculated into 5 ml of LB broth and incubated on a shaker (400 rpm) at 37 °C overnight. The bacterial concentrations were determined by viable count and were adjusted to correlate with approximately 10^9 CFU/ml.
(§2) The broth microdilution method was used to determine minimal inhibitory concentration (MIC) and minimal bactericidal concentration (MBC), in accordance with the EUCAST standards for the broth microdilution method. Two-fold serial dilutions of the lipopeptides were used, and the final concentrations ranged from 0.19 to 100 µM. In brief, two-fold serial dilutions of the lipopeptides were performed in a 96-well plate in PBS, with a final volume of 100 µl per well, after which 100 µl of LB-broth media containing approximately 5 × 10^5 CFU/ml of bacteria was added to each well. The plate was then incubated for 20 h in 37 °C on a shaker (400 rpm). The effect of lipopeptide-antibiotic combinations was investigated by performing checkerboard assays. The assays were performed in accordance with the MIC and MBC tests conducted above, but with horizontal and longitudinal two-fold serial dilutions of the tested compounds. […] The fractional inhibitory concentration (FIC) and fractional bactericidal concentration (FBC) were calculated by the equation (MIC or MBC of peptide in combination/MIC or MBC of peptide alone) + (MIC or MBC of antibiotic in combination/MIC or MBC of antibiotic alone). Synergy was defined as FIC/FBC ≤ 0.5, additive when 0.5 < FIC/FBC ≤ 1, indifferent when 1 < FIC/FBC < 2 and antagonistic when FIC/FBC ≥ 2. All experiments were repeated at least three times.

[2] = test system: S. aureus (ATCC 29213, MSSA)
Description: as §1, §2

[3] = test system: S. aureus (ATCC 29213); assay type: cell-based; conditions: Table 6; ATCC 29213; checkerboard assay, 50:50 PBS/LB-broth, 200 µL
Description: as §2, with “Two-fold serial dilutions of the lipopeptides were used, and the final concentrations ranged from 0.19 to 100 µM.” left out, “Synergy was defined as FIC/FBC ≤ 0.5, additive when 0.5 < FIC/FBC ≤ 1, indifferent when 1 < FIC/FBC < 2 and antagonistic when FIC/FBC ≥ 2.” left out

[4] = Carboxyfluorescein release assay, mammalian liposome model; assay type: biochemical; conditions: 65:5:30 POPC:POPS:Chol. liposomes, 25 µM lipid, 10 mM PBS pH 7.4, 10^–5–10^2 µM peptide, 60 min, fluorescence, Hill fit, n = 3; read-out: EC50 Mammalial (concentration that triggers 50% CF release)
Description: (§3) Liposomes were prepared by thin-film hydration method. Lipids stock solutions (10 mg/ml in chloroform, Avanti Polar Lipids, Inc., Alabaster, United States) of the lipids 1-palmitoyl-2-oleoyl-sn-glycero-3-phosphocholine (POPC), 1-palmitoyl-2-oleoyl-sn-glycero-3-phospho-L-serine (POPS), 1-Hexadecanoyl-2-(9Z-Octadecenoyl)-sn-Glycero-3-Phosphoglycerol (POPG) and Cholesterol (Chol) were employed. Bacterial liposomes were prepared with a 75:25 ratio of POPC:POPG and mammalian liposomes were prepared with a 65:5:30 ratio of POPC:POPS:Chol. Lipid solutions were thoroughly homogenised, and the solvent was evaporated with the use of a dry N2 steam to yield a lipid cake. […] The lipid film was subsequently hydrated with a 5(6)-CF solution (50 mM CF, 10 mM PBS, 90 mM NaCl, pH 7.4). Following a 10 min incubation on orbital shaker (50 min^−1), the solution was vortexed for 60 s on medium speed. A mini extruder (Avanti Polar Lipids, Inc., United States) was employed and 21 extrusions were performed through a 0.1 µm filter membrane (Nuclepore track-etched hydrophilic membrane, Cytiva, Whatman, MA, United States), resulting in monodispersed unilamellar liposomes. Directly before use the liposomes were purified from unencapsulated CF by filtration through a gel filtration column (PD Minitrap G-25 column, Cytiva, United States), against PBS buffer (10 mM, pH 7.4).
(§4) Peptide and lipopeptide activity towards liposome models were evaluated using a carboxyfluorescein (CF) release assay. Liposomes were diluted in PBS (10 mM, pH 7.4) to a final lipid concentration of 25 µM and incubated with peptides (10^–5–10^2 µM) in a 96-well plate (n = 3). CF release was monitored using an Infinite M1000 PRO plate reader every 2.5 min for 1 h. Full (100%) CF release was obtained by addition of 1% Triton X-100 solution followed by 10 min incubation. CF release percentage was evaluated according to the formula 100 * (F − F0)/(FT − F0), where F indicates the instantaneous fluorescence, FT the total fluorescence and F0 the background fluorescence prior to peptide addition. Data were fitted to a Hill-1 curve using MATLAB R2019a (The MathWorks Inc., Natick, Massachusetts, United States) and the half maximum effective concentration (EC50) was extracted.

[5] = Carboxyfluorescein release assay, bacterial liposome model; assay type: biochemical; conditions: for EC50: 75:25 POPC:POPG liposomes, 25 µM lipid, 10 mM PBS pH 7.4, 10^–5–10^2 µM peptide, 60 min, fluorescence, Hill fit, n = 3, read-out: EC50 Bacterial (concentration that triggers 50% CF release)
Description: as §3, §4

[6] = Table 3, K-12 MG1655, broth microdilution, 50:50 PBS/LB-broth, 200 µL, 20 h, 37 °C
[7] = Table 3, ATCC 29213, broth microdilution, 50:50 PBS/LB-broth, 200 µL, 20 h, 37 °C

Row | Compound | E. coli MBC ([1]; K-12, 20 h) | E. coli MIC ([1]; K-12, 20 h) | S. aureus MBC ([2]; ATCC 29213, 20 h) | S. aureus MIC ([2]; ATCC 29213, 20 h) | EC50 [4] | EC50 [5] | other results
1 | Ac-WSAYKH-NH2 [S5] | > 100 µM | > 100 µM | > 100 µM | > 100 µM | – | – | –
2 | Ac-LWSAYKHR-NH2 [S3] | > 100 µM | > 100 µM | > 100 µM | > 100 µM | – | – | –
3 | CN[C@H](CC(C)C)C(=O)N[C@H]1C(=O)N[C@@H](CC(N)=O)C(=O)N[C@H]2C(=O)N[C@H]3C(=O)N[C@H](C(=O)N[C@H](C(=O)O)c4cc(O)cc(O)c4-c4cc3ccc4O)[C@H](O)c3ccc(c(Cl)c3)Oc3cc2cc(c3O[C@@H]2O[C@H](CO)[C@@H](O)[C@H](O)[C@H]2O[C@H]2C[C@](C)(N)[C@H](O)[C@H](C)O2)Oc2ccc(cc2Cl)[C@H]1O [Vancomycin] | – | – | – | – | – | – | S. aureus MBC, antibiotic alone [3]: 0.78 mg/L; S. aureus MIC, antibiotic alone [3]: 0.78 mg/L
4 | SVPTSVYTLGIKILWSAYKHRKTIEKSFNKGFYH [PLNC8 β, reference compound] | – | – | – | – | 1.26 µM | 0.02 µM | CF release ([5]; bacterial-mimicking liposomes, peptide 100 pM, after 60 min of incubation): ~ 20%; E. coli MIC ([1]; Table 2, K-12 MG1655, broth microdilution, 50:50 PBS/LB-broth, 200 µL, 20 h, 37 °C): > 100 µM; E. coli MBC ([1]; Table 2, K-12 MG1655, broth microdilution, 50:50 PBS/LB-broth, 20 h, 37 °C, 10 µl drops on LB-agar): > 100 µM; E. coli MBC [1, 6]: > 100 µM; S. aureus MBC ([2]; Table 2, ATCC 29213, broth microdilution, 50:50 PBS/LB-broth, 20 h, 37 °C, 10 µl drops on LB-agar): > 100 µM; S. aureus MIC ([2]; Table 2, ATCC 29213, broth microdilution, peptide in PBS, bacteria in LB-broth, 200 µL, 50:50 PBS/broth, ~5 × 10^5 CFU/ml, 20 h, 37 °C, repeated at least three times): > 100 µM; S. aureus MBC [2, 7]: > 100 µM; S. aureus MIC [2, 7]: > 100 µM
5 | PEG800-LGIKILWSAYKHRKTI [L-6-Peg800] | – | – | – | – | – | – | E. coli MBC [1, 6]: > 100 µM; E. coli MIC [1, 6]: > 100 µM; S. aureus MBC [2, 7]: > 100 µM; S. aureus MIC [2, 7]: > 100 µM
6 | CCCC(=O)N[C@@H](CC(C)C)C(=O)NCC(=O)N[C@H](C(=O)N[C@@H](CCCCN)C(=O)N[C@H](C(=O)N[C@@H](CC(C)C)C(=O)N[C@@H](Cc1c[nH]c2ccccc12)C(=O)N[C@@H](CO)C(=O)N[C@@H](C)C(=O)N[C@@H](Cc1ccc(O)cc1)C(=O)N[C@@H](CCCCN)C(=O)N[C@@H](Cc1c[nH]cn1)C(=O)N[C@@H](CCCNC(=N)N)C(=O)N[C@@H](CCCCN)C(=O)N[C@H](C(=O)N[C@H](C(N)=O)[C@@H](C)CC)[C@@H](C)O)[C@@H](C)CC)[C@@H](C)CC [L-6-C4] (Butyryl-LGIKILWSAYKHRKTI-NH2) | 25 µM | 12.5 µM | 25 µM | 12.5 µM | > 10 µM | 0.11 µM | –
7 | CCCCCCCCCC(=O)N[C@@H](CC(C)C)C(=O)NCC(=O)N[C@H](C(=O)N[C@@H](CCCCN)C(=O)N[C@H](C(=O)N[C@@H](CC(C)C)C(=O)N[C@@H](Cc1c[nH]c2ccccc12)C(=O)N[C@@H](CO)C(=O)N[C@@H](C)C(=O)N[C@@H](Cc1ccc(O)cc1)C(=O)N[C@@H](CCCCN)C(=O)N[C@@H](Cc1c[nH]cn1)C(=O)N[C@@H](CCCNC(=N)N)C(=O)N[C@@H](CCCCN)C(=O)N[C@H](C(=O)N[C@H](C(N)=O)[C@@H](C)CC)[C@@H](C)O)[C@@H](C)CC)[C@@H](C)CC [L-6-C10] (Decanoyl-LGIKILWSAYKHRKTI-NH2) | > 100 µM | > 100 µM | > 100 µM | 50 µM | 0.68 µM | 1.1 µM | –
8 | CCCCCCCC(=O)N[C@@H](CC(C)C)C(=O)NCC(=O)N[C@H](C(=O)N[C@@H](CCCCN)C(=O)N[C@H](C(=O)N[C@@H](CC(C)C)C(=O)N[C@@H](Cc1c[nH]c2ccccc12)C(=O)N[C@@H](CO)C(=O)N[C@@H](C)C(=O)N[C@@H](Cc1ccc(O)cc1)C(=O)N[C@@H](CCCCN)C(=O)N[C@@H](Cc1c[nH]cn1)C(=O)N[C@@H](CCCNC(=N)N)C(=O)N[C@@H](CCCCN)C(=O)N[C@H](C(=O)N[C@H](C(N)=O)[C@@H](C)CC)[C@@H](C)O)[C@@H](C)CC)[C@@H](C)CC [L-6-C8] (Octanoyl-LGIKILWSAYKHRKTI-NH2) | 12.5 µM | 12.5 µM | 3.1 µM | 3.1 µM | 0.94 µM | 0.19 µM | –
9 | Ac-WSAYK-NH2 [S6] | > 100 µM | > 100 µM | > 100 µM | > 100 µM | – | – | –
10 | CCCCCCCCCCCCCCC(=O)N[C@@H](CC(C)C)C(=O)NCC(=O)N[C@H](C(=O)N[C@@H](CCCCN)C(=O)N[C@H](C(=O)N[C@@H](CC(C)C)C(=O)N[C@@H](Cc1c[nH]c2ccccc12)C(=O)N[C@@H](CO)C(=O)N[C@@H](C)C(=O)N[C@@H](Cc1ccc(O)cc1)C(=O)N[C@@H](CCCCN)C(=O)N[C@@H](Cc1c[nH]cn1)C(=O)N[C@@H](CCCNC(=N)N)C(=O)N[C@@H](CCCCN)C(=O)N[C@H](C(=O)N[C@H](C(N)=O)[C@@H](C)CC)[C@@H](C)O)[C@@H](C)CC)[C@@H](C)CC [L-6-C15] (Pentadecanoyl-LGIKILWSAYKHRKTI-NH2) | > 100 µM | > 100 µM | > 100 µM | > 100 µM | 0.87 µM | 19.4 µM | –
11 | Ac-ILWSAYKHR-NH2 [S2] | > 100 µM | > 100 µM | > 100 µM | > 100 µM | – | – | –
12 | Ac-KILWSAYKHR-NH2 [S1] | > 100 µM | > 100 µM | > 100 µM | > 100 µM | – | – | –
13 | Ac-WSAYKHR-NH2 [S4] | > 100 µM | > 100 µM | > 100 µM | > 100 µM | – | – | –
